Where a name gives a salt, the structure may show the parent alone.
SMILES | melting point [°C]
O=C(NCc1ccc(C(F)(F)F)c(F)c1)Nc1cccc2[nH]ccc12 [Example 82, N-[3-fluoro-4-(trifluoromethyl)benzyl]-N′-1H-indol-4-ylurea] | 198
O=C(NCc1ccc(OC(F)(F)F)cc1)Nc1cccc2[nH]ccc12 [Example 81, N-1H-indol-4-yl-N′-[4-(trifluoromethoxy)benzyl]urea] | 177
O=C(NCc1ccc(Br)cc1)Nc1cccc2[nH]ncc12 (as salt: hydrochloride) [Example 89, N-(4-bromobenzyl)-N′-1H-indazol-4-ylurea] | 126
Cc1[nH]c2cccc(NC(=O)NCc3ccc(Br)cc3)c2c1C [Example 88, N-(4-bromobenzyl)-N′-(2,3-dimethyl-1H-indol-4-yl)urea] | 190
O=C(NCc1ccc(Br)cc1)Nc1cccc2[nH]ccc12 [Example 78, N-(4-bromobenzyl)-N′-1H-indol-4-ylurea] | 198
O=C(NCc1ccc(Cl)c(Cl)c1)Nc1cccc2[nH]ccc12 [Example 79, N-(3,4-dichlorobenzyl)-N′-1H-indol-4-ylurea] | 201
O=C(NCCc1ccc(Cl)cc1Cl)Nc1cccc2[nH]ccc12 [Example 85, N-[2-(2,4-dichlorophenyl)ethyl]-N′-1H-indol-4-ylurea] | 170
O=C(NCc1ccc(Cl)c(C(F)(F)F)c1)Nc1cccc2[nH]ccc12 [Example 83, 1-(4-Chloro-3-trifluoromethyl-benzyl)-3-(1H-indol-4-yl)-urea] | 197
O=C(NCc1ccc(C(F)(F)F)cc1)Nc1cccc2[nH]ccc12 [Example 80, N-1H-indol-4-yl-N′-[4-(trifluoromethyl)benzyl]urea] | 178
